According to ChEMBL document CHEMBL4765254, “Design, synthesis and biological evaluation of 1-alkyl-5/6-(5-oxo-4,5-dihydro-1,2,4-oxadiazol-3-yl)-1H-indole-3-carbonitriles as novel xanthine oxidase inhibitors” (Eur J Med Chem, 2020):
Active and inactive are the calls of the source. No cut-off for these calls is given here.

What follows are compounds tested against T1, Xanthine dehydrogenase/oxidase (Bos taurus, UniProt P80457) (assay: Inhibition of bovine xanthine oxidase assessed as reduction in uric acid formation at 10 uM using xanthine as substrate preincubated for 25 mins followed by substrate addition measured at first 2 mins by spectrophotometric analysis relative to control). Conditions: cattle, time 27 min.
T1 sequence (P80457 whole entry): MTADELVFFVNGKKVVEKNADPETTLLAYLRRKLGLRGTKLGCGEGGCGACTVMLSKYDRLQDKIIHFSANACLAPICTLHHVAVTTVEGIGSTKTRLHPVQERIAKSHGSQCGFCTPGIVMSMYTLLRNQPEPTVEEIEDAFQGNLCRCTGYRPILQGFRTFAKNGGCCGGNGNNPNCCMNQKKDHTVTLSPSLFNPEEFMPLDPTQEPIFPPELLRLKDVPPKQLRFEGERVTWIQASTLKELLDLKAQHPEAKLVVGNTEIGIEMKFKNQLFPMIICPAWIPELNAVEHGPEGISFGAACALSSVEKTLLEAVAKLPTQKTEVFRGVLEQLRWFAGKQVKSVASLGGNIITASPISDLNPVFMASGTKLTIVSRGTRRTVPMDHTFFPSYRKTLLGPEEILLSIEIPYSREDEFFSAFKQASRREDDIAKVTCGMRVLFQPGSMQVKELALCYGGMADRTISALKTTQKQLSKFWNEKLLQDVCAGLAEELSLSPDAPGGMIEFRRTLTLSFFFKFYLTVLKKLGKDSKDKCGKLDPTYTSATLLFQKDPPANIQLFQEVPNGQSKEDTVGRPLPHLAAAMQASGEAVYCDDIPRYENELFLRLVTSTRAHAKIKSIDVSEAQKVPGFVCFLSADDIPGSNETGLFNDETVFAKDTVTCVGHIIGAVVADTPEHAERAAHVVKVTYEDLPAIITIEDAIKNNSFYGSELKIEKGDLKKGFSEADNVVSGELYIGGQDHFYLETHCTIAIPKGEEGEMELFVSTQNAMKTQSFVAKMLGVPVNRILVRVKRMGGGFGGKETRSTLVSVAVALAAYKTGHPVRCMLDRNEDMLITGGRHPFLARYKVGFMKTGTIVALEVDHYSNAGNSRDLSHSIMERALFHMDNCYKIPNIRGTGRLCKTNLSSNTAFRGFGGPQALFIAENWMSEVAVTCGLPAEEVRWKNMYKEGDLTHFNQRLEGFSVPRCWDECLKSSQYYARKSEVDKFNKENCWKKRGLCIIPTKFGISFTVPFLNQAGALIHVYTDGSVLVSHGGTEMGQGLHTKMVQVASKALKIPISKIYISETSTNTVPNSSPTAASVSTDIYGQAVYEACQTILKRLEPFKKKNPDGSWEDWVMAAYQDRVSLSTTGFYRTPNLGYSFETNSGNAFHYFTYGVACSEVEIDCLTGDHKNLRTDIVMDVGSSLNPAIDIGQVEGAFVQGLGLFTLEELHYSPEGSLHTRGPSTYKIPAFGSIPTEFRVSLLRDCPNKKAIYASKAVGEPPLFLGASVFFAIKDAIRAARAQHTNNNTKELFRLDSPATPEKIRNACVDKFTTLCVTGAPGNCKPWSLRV

Compound | inhibition at 10 µM [%]
O=c1[nH]c(-c2ccc3c(ccn3C3CCCC3)c2)no1 | < 50
CC(C)n1ccc2cc(-c3noc(=O)[nH]3)ccc21 | < 50

Each compound was assayed on Rattus norvegicus (assay: Hypouricemic activity in Sprague-Dawley rat model of Potassium oxonate-induced acute hyperuricemia assessed as decrease in serum uric acid level at 10 mg/kg, ig administered 1 hr after potassium oxonate treatment and measured after 3 hrs relative to control). Conditions: time 4 hrs.
Assay type: functional
Set-up: scale not given: the % may be the effect or the level left

Compound | Activity [%]
N#Cc1cn(C2CCCC2)c2ccc(-c3noc(=O)[nH]3)cc12 | 20.8

These compounds were tested against T1, Xanthine dehydrogenase/oxidase (assay: Inhibition of bovine xanthine oxidase assessed as reduction in uric acid formation using xanthine as substrate preincubated for 25 mins followed by substrate addition measured at first 2 mins by spectrophotometric analysis). Conditions: not given.

Compound | IC50 [nM]
Cc1cccc(Cn2cc(C#N)c3cc(-c4noc(=O)[nH]4)ccc32)c1 | 2160
N#Cc1c[nH]c2ccc(-c3noc(=O)[nH]3)cc12 | 4130
N#Cc1cn(Cc2ccc(F)cc2)c2ccc(-c3noc(=O)[nH]3)cc12 | 1710
COc1ccc(Cn2cc(C#N)c3cc(-c4noc(=O)[nH]4)ccc32)cc1 | 1020
Cc1ccc(Cn2cc(C#N)c3cc(-c4noc(=O)[nH]4)ccc32)cc1 | 1140
N#Cc1cn(CC2CC2)c2ccc(-c3noc(=O)[nH]3)cc12 | 880
CC(C)(C)c1ccc(Cn2cc(C#N)c3cc(-c4noc(=O)[nH]4)ccc32)cc1 | 1440
CC(C)CCn1cc(C#N)c2cc(-c3noc(=O)[nH]3)ccc21 | 1020
CC(C)CCn1cc(C#N)c2ccc(-c3noc(=O)[nH]3)cc21 | 6560
CC(C)n1cc(C#N)c2ccc(-c3noc(=O)[nH]3)cc21 | 1800
N#Cc1cn(Cc2ccc(Cl)cc2)c2ccc(-c3noc(=O)[nH]3)cc12 | 2400
CC(C)Cn1cc(C#N)c2cc(-c3noc(=O)[nH]3)ccc21 | 1090
Cn1cc(C#N)c2cc(-c3noc(=O)[nH]3)ccc21 | 5410
N#Cc1cn(Cc2cccc(Cl)c2)c2ccc(-c3noc(=O)[nH]3)cc12 | 2930
N#Cc1cn(C2CCCC2)c2cc(-c3noc(=O)[nH]3)ccc12 | 820
N#Cc1cn(Cc2cccc(F)c2)c2ccc(-c3noc(=O)[nH]3)cc12 | 3600
N#Cc1cn(Cc2cccc(Br)c2)c2ccc(-c3noc(=O)[nH]3)cc12 | 2600
CC(C)n1cc(C#N)c2cc(-c3noc(=O)[nH]3)ccc21 | 410
COc1cccc(Cn2cc(C#N)c3cc(-c4noc(=O)[nH]4)ccc32)c1 | 1700
N#Cc1cn(Cc2ccc(Br)cc2)c2ccc(-c3noc(=O)[nH]3)cc12 | 2070
CC(C)=CCn1cc(C#N)c2cc(-c3noc(=O)[nH]3)ccc21 | 1240
N#Cc1cn(CC2CCCCC2)c2ccc(-c3noc(=O)[nH]3)cc12 | 2860
N#Cc1cn(Cc2ccccc2)c2ccc(-c3noc(=O)[nH]3)cc12 | 1720
Cc1ccc(Cn2cc(C#N)c3ccc(-c4noc(=O)[nH]4)cc32)cc1 | 1840

What follows are compounds tested on Rattus norvegicus (assay: Hypouricemic activity in Sprague-Dawley rat model of Potassium oxonate-induced acute hyperuricemia assessed as decrease in serum urate level at 10 mg/kg, ig administered 1 hr after potassium oxonate treatment and measured after 8 hrs). Conditions: not given.
Assay type: functional, organism-based

Compound | Activity
N#Cc1cn(C2CCCC2)c2ccc(-c3noc(=O)[nH]3)cc12 | Active

Each compound was assayed against T1, Xanthine dehydrogenase/oxidase (assay: Mixed type inhibition of bovine xanthine oxidase assessed as inhibitory constant using xanthine as substrate preincubated for 25 mins followed by substrate addition measured at first 2 mins by spectrophotometry based Lineweaver-Burk plot analysis). Conditions: not given.

Compound | Ki [nM]
N#Cc1cn(C2CCCC2)c2ccc(-c3noc(=O)[nH]3)cc12 | 138

What follows are compounds tested on Rattus norvegicus (assay: Hypouricemic activity in Sprague-Dawley rat model of Potassium oxonate-induced acute hyperuricemia assessed as percentage decrease in serum uric acid AUC (1 to 8 hrs) at 10 mg/kg, ig administered 1 hr after potassium oxonate treatment and measured after 8 hrs relative to control). Conditions: not given.
Assay type: functional
Set-up: scale not given: the % may be the effect or the level left

Compound | Activity [%]
N#Cc1cn(C2CCCC2)c2ccc(-c3noc(=O)[nH]3)cc12 | 12.8
